The text below walks through data of paper PMC6268135, “Synthesis and 5α-Reductase Inhibitory Activity of C21 Steroids Having 1,4-diene or 4,6-diene 20-ones and 4-Azasteroid 20-Oximes” (Molecules, 2011).

Each structure is given as a SMILES string. Where two headings read alike, the source gives them in different places. Where only a bound is given, the exact number is not on record here.

Data set [1] addresses testosterone 5α-reductase prepared from rat prostates. Description: Testosterone 5α-reductase assay ([1,2,6,7-3H]testosterone as substrate).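 Also: conversion of tritiated testosterone to 5α-dihydrotestosterone, separated by TLC and scintillation counted, relative to enzyme control without test sample after subtracting substrate blank without enzyme.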
Description: Since the rat prostate extracts for measuring testosterone 5α-reductase inhibition were used in a neutral pH buffer, both isozymes were assayed in this study due to differences in its biochemical properties.
The enzyme suspension of testosterone 5α-reductase was prepared from the homogenate of the ventral prostate of male Sprague-Dawley rats using the methods previously reported [32]. Testosterone 5α-reductase inhibition was measured according to the methods previously reported [32]. A brief description follows: Sprague-Dawley male rats 7-8 weeks old were sacrificed by diethyl ether, and the ventral prostates were excised and minced with a pair of scissors. The prostates were homogenized with a glass-glass homogenizer in medium A (0.32 M sucrose, 0.1 mM dithiothreitol and 20 mM sodium phosphate, pH 6.5) to about 20% (w/v). The homogenate was filtered over 8 layers of surgical gauze, and centrifuged at 3,000 × g for 15 min. The resulting pellets were resuspended in medium A to about 25% (w/v) by triturating the suspension sequentially through an 18-gauge and then a 20-gauge needle. The assay mixture containing the test sample in ethanol (10 μL), reaction solution [525 μL, 1 mM dithiothreitol, 40 mM sodium phosphate (pH 6.5), 50 µM NADPH and 2.2 mM [1,2,6,7-^3H]testosterone, 3.15-3.89 TBq/mmol, PerkinElmer (Waltham, MA, USA)] and the enzyme suspension prepared above (40 μL), was incubated at 37°C for 1 h. After extraction with ethyl acetate (1 mL), a sample of the ethyl acetate phase (50 μL) was chromatographed on a silica plastic sheet (Kieselgel 60 F254, Merck KGaA (Darmstadt, Germany)) using the developing solvent system ethyl acetate-cyclohexane (1:1). Each of the testosterone and 5α-dihydrotestosterone areas was cut from the sheet. The ^3H radioactivity of each fragment was counted in 5 mL of Aquasol-2 (PerkinElmer) with a liquid scintillation counter [LS 6500, Beckman Coulter (Brea, CA, USA)]. Testosterone 5α-reductase inhibitory activity was calculated as follows:
where DHT and T are the ^3H radioactivity recovered in the areas of 5α-dihydrotestosterone and testosterone, respectively. rsample and rcontrol are reaction rates of the test sample and the enzyme control in which reaction rates are measured in the presence and absence of test sample, respectively, and rblank is reaction rate of the substrate blank in which reaction rate is measured in the absence of test sample and enzyme suspension. IC50 was calculated from the inhibitory activity values at several concentrations using linear regression analysis. Each enzyme reaction was carried out in duplicate.
Where [2] appears, read: read-out: IC50 (5α-reductase inhibitory activity), rat prostatic testosterone 5α-reductase.
[3] abbreviates: read-out: IC50 (testosterone 5α-reductase inhibitory activity), rat ventral prostate enzyme suspension, pH 6.5, 37°C, 1 h, both type 1 and type 2 isozymes.
Setting [4] is: rat prostatic testosterone 5α-reductase.

As for `CC(=NO)[C@H]1CC[C@H]2[C@@H]3C=CC4=CC(=O)[C@@H]5O[C@@H]5[C@]4(C)[C@H]3CC[C@]12C`, the melting point lay in the range of 228 to 230 °C.
For the compound `CC(=NO)[C@H]1CC[C@H]2[C@@H]3[C@@H]4O[C@@H]4C4=CC(=O)C=C[C@]4(C)[C@H]3CC[C@]12C`, the melting point fell in the range of 245 to 247 °C.
As for `CC(=O)[C@H]1CC[C@H]2[C@@H]3CCC4=CC(=O)CC[C@]4(C)[C@H]3CC[C@]12C` [Compound 1, 4-pregnene-3,20-dione, reference compound], the concentration for half-maximal inhibition (IC50) in data set [1] (setting [2]) and in data set [1] (setting [3]) was 6.5 nM each time.
For `CC(=O)[C@H]1CCC2C3CCC(=O)[C@](C)(CCC(=O)O)C3CC[C@@]21C` (stereo partly shown) [Compound 2, 5,20-Dioxo-A-nor-3,5-secopregnane-3-oic acid], the melting point fell in the range of 176 to 178 °C. For the same compound, the “5α-reductase inhibitory activity in words” value in data set [1] (setting [4]) was “only a weak inhibitory activity”. For the same compound, the IC50 in data set [1] (setting [3]) is above 10000 nM.
`CC(=O)[C@H]1CC[C@H]2[C@@H]3CC=C4NC(=O)CC[C@]4(C)[C@H]3CC[C@]12C` [Compound 3, 4-Aza-5-pregnene-3,20-dione] returned a melting point of 158 to 160 °C. Also, the “5α-reductase inhibitory activity in words” value in data set [1] (setting [4]) is given as “moderate inhibition”. For the same compound, in data set [1] (setting [3]), the IC50 worked out at 2300 nM.
On to `CC(=NO)[C@H]1CC[C@H]2[C@@H]3CC=C4NC(=O)CC[C@]4(C)[C@H]3CC[C@]12C` [Compound 4, 4-Aza-5-pregnene-3,20-dione-20-oxime], for which the melting point was 208 to 210 °C. Besides, the “5α-reductase inhibitory activity in words” value in data set [1] (setting [4]) is on record as “potent inhibition”. Also, in data set [1] (setting [2]), the IC50 turned out to be 26 nM. In addition, the IC50 in data set [1] (setting [3]) is 26 nM.
On to `CC(=O)[C@H]1CC[C@H]2[C@@H]3CCC4NC(=O)CC[C@]4(C)[C@H]3CC[C@]12C` (stereo partly shown) [Compound 5, 4-Aza-pregnane-3,20-dione], for which the “5α-reductase inhibitory activity in words” value in data set [1] (setting [4]) is on record as “potent inhibition”. Moreover, the concentration for half-maximal inhibition (IC50) in data set [1] (setting [3]) is 6100 nM.
`CC(=NO)[C@H]1CC[C@H]2[C@@H]3CCC4NC(=O)CC[C@]4(C)[C@H]3CC[C@]12C` (stereo partly shown) [Compound 6, 4-Aza-pregnane-3,20-dione-20-oxime]: the melting point lay within 194 to 196 °C. The “5α-reductase inhibitory activity in words” value in data set [1] (setting [4]) is given as “potent inhibition”. Further, the IC50 in data set [1] (setting [2]) came to 10 nM. Besides, in data set [1] (setting [3]), the half-maximal inhibitory concentration (IC50) came to 10 nM.
As to `CC(=O)[C@H]1CC[C@H]2[C@@H]3CCC4NC(=O)C=C[C@]4(C)[C@H]3CC[C@]12C` (stereo partly shown) [Compound 7, 4-Aza-1-pregnene-3,20-dione], the melting point was in the range of 174 to 176 °C. In addition, the “5α-reductase inhibitory activity in words” value in data set [1] (setting [4]) is “potent inhibition”. The concentration for half-maximal inhibition (IC50) in data set [1] (setting [3]) came out at 14 nM.
The compound `CC(=NO)[C@H]1CC[C@H]2[C@@H]3CCC4NC(=O)C=C[C@]4(C)[C@H]3CC[C@]12C` (stereo partly shown) [Compound 8, 4-Aza-1-pregnene-3,20-dione-20-oxime] yielded a melting point of 235 to 237 °C. In addition, in data set [1] (setting [4]), the “5α-reductase inhibitory activity in words” value was “potent inhibition”. Further, in data set [1] (setting [2]), the IC50 was determined as 11 nM. The IC50 in data set [1] (setting [3]) came to 11 nM.
In turn, `CC(=O)[C@H]1CC[C@H]2[C@@H]3C=CC4=CC(=O)C=C[C@]4(C)[C@H]3CC[C@]12C` [Compound 9, 1,4,6-Pregnatriene-3,20-dione] yielded a melting point of 144 to 146 °C. Further, the “5α-reductase inhibitory activity in words” value in data set [1] (setting [4]) is “moderate inhibition”. In addition, in data set [1] (setting [3]), the 50% inhibitory concentration (IC50) was 760 nM.
The matching figures for `CC(=O)[C@H]1CC[C@H]2[C@@H]3C=CC4=CC(=O)[C@@H]5O[C@@H]5[C@]4(C)[C@H]3CC[C@]12C` [Compound 10, 1α,2α-Epoxypregna-4,6-diene-3,20-dione]: 183 to 185 °C, “no inhibitory activity” and above 10000 nM.
The matching figures for `CC(=O)[C@H]1CC[C@H]2[C@@H]3[C@@H]4O[C@@H]4C4=CC(=O)C=C[C@]4(C)[C@H]3CC[C@]12C` [Compound 13, 6α,7α-Epoxypregna-1,4-diene-3,20-dione]: 206 to 208 °C, “no inhibitory activity” and above 10000 nM.
Take `CC(=O)O[C@H]1CC[C@@]2(C)C(=CCC3C2CC[C@@]2(C)C3CC[C@@H]2C(C)=O)C1` (stereo partly drawn) [Compound 15, 3β-Acetoxypregnenolone]: the “5α-reductase inhibitory activity in words” value in data set [1] (setting [4]) is recorded as “no inhibition”. The IC50 in data set [1] (setting [3]) was above 10000 nM.
Turning to `CC(=O)O[C@H]1CC[C@@]2(C)C(=CCC3C2CC[C@@]2(C)C3CC[C@@H]2C(C)=NO)C1` (stereo partly shown) [Compound 16], the “5α-reductase inhibitory activity in words” value in data set [1] (setting [4]) is recorded as “no inhibition”. The half-inhibitory concentration (IC50) in data set [1] (setting [3]) was above 10000 nM.
Take `CC(=O)C1CCC2C3CC4OC45CC(O)CCC5(C)C3CCC12C` (stereo not shown) [Compound 17]: the “5α-reductase inhibitory activity in words” value in data set [1] (setting [4]) was “no inhibition”. The IC50 in data set [1] (setting [3]) is above 10000 nM.
The matching figures for `CC(=NO)C1CCC2C3CC4OC45CC(O)CCC5(C)C3CCC12C` (stereo not shown) [Compound 18]: “no inhibition” and above 10000 nM.
With `CC(=NO)[C@H]1CCC2C3CCC4=CC(=O)CC[C@]4(C)C3CC[C@@]21C` (stereo partly shown) [Compound 20], in data set [1] (setting [3]), the 50% inhibitory concentration (IC50) is 14 nM.
Same read-out and setting: to `CC(=NO)[C@H]1CCC2C3CCC(=O)[C@](C)(CCC(=O)O)C3CC[C@@]21C` (stereo partly shown) [Compound 21] belongs 2100 nM; to `CC(=NO)[C@H]1CCC2C3CCC4=CC(=O)C=C[C@]4(C)C3CC[C@@]21C` (stereo partly shown) [Compound 22, 1,4-Pregnadiene-20-oxime], 140 nM.
With `CC(C)(C)NC(=O)[C@H]1CC[C@H]2[C@@H]3CC[C@H]4NC(=O)C=C[C@]4(C)[C@H]3CC[C@]12C` [Finasteride, finasteride, reference compound], the half-inhibitory concentration (IC50) in data set [1] (setting [2]) and in data set [1] (setting [3]) was 1.2 nM in each case.

A word on the melting point: it is the temperature of the solid-liquid transition. In general, IC50 refers to the concentration that gives 50% inhibition.
